Drawing on PubChem BioAssay (NCI), this text covers GI50 and TGI for 2 compounds.

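Each compound was tested at five concentrations against cells in 96-well plates for 48 hours. GI50: concentration for 50% inhibition of growth. At the TGI there is no net growth.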

Among the test systems are HOP-92 NSCLC; TK-10 renal; SK-MEL-28 melanoma; SW-620 colon; BT-549 breast; MDA-MB-435; SN12C renal; 786-0 renal; NCI-H460 lung; SF-268 CNS.
What all share (assay): NCI anticancer screen, dose series, 48 h

For `COc1ccc(-c2cn(-c3ccc(Cl)cc3)c(=S)[nH]2)cc1OC`, the GI50 was 0.333 µM with HOP-92 NSCLC; 12.1 µM in the test with TK-10 renal; 22.3 µM in the test on SK-MEL-28 melanoma; over 100 µM in the test with SW-620 colon; 7.3 µM in the test with BT-549 breast; over 100 µM in the test on MDA-MB-435. The GI50 with SN12C renal was 7.52 µM; in the test on 786-0 renal, 6.44 µM; with NCI-H460 lung it was 3.92 µM; in the test on SF-268 CNS it was 24.6 µM. The TGI is 7.63 µM in the test with HOP-92 NSCLC; over 100 µM in the test with TK-10 renal; over 100 µM with SK-MEL-28 melanoma; over 100 µM in the test on SW-620 colon; over 100 µM in the test on BT-549 breast; over 100 µM in the test on MDA-MB-435. In addition, the TGI was over 100 µM in the test with SN12C renal, 91.7 µM with 786-0 renal, over 100 µM in the test with NCI-H460 lung and over 100 µM in the test on SF-268 CNS.

Take `O=C(CCCCCCC(=O)N/N=C/c1ccc(N(c2ccccc2)c2ccccc2)cc1)NO`: the GI50 in the test on HOP-92 NSCLC is 1.67 µM; with TK-10 renal, 0.314 µM; in the test with SK-MEL-28 melanoma, 3.06 µM; in the test with SW-620 colon, 2.49 µM; in the test on BT-549 breast, 2.38 µM; in the test with MDA-MB-435, 3.16 µM. In addition, the GI50 was 2.94 µM with SN12C renal, 1.58 µM in the test on 786-0 renal, 1.54 µM in the test with NCI-H460 lung and 3.27 µM in the test on SF-268 CNS. The TGI amounted to 4.25 µM in the test with HOP-92 NSCLC; 1.86 µM in the test with TK-10 renal; 11.6 µM in the test with SK-MEL-28 melanoma; 14.3 µM in the test with SW-620 colon; 11.5 µM in the test with BT-549 breast; 18.5 µM with MDA-MB-435. For the same compound, the TGI was 13.5 µM in the test with SN12C renal, 3.7 µM in the test with 786-0 renal, 8.58 µM in the test on NCI-H460 lung and 13.6 µM in the test with SF-268 CNS.
